Where “and” joins values, the source holds several entries; their conditions need not be identical. Equal entries are not always repeated.
Tests used:
[1] = tested on: NCI-H211 small cell lung cancer (SCLC) cells; experiment: AlamarBlue assay, NCI-H211; format: cell-based; conditions: for Cellular activity in SCLCs (H211), alamarBlue: Fig.1e, replicates
Method in brief: (§1)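 BRD4 (BD1+BD2) binding to acetylated histone H4 was measured with a TR-FRET kit per the kit protocol. For the AlamarBlue assays, MDA-MB231, NCI-H211 and A375 cells were plated at ~30% confluence, adhered overnight and treated. Resazurin (0.3 mg/ml reagent) was added for 18 h and fluorescence read at ex 530/em 590 nm.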

H526 tumors = experiment: Immunofluorescent staining of cleaved caspase 3 and Ki67 in H526 tumors; format: in vivo, mouse; conditions: treated H526 tumors, independent images
Description: Immunofluorescence staining of tumor sections was performed according to the manufacturer’s instructions. Slides were imaged using a Zeiss Axiovert 200 fluorescence microscope (Carl Zeiss MicroImaging; Thornwood, NY), and images were captured using Openlab3 software (Imprecision, Lexington, MA). Cleaved caspase 3, Ki67, CSF1, and CD68 positive cells were counted with ImageJ version 1.52s[58].
Supplementary Figure 10. NHWD-870 increased tumor apoptosis and inhibite d tumor proliferation.
(a,b) Immunofluorescent staining of cleaved caspase 3 (apoptotic cells, red) and E-Cadherin (cancer cells, […]
green) in vehicle, NHWD-870 or BMS-986158 treated H526 tumors from Figure 4a. Shown are […]
representative images of cleaved caspase 3 positive cells (a) and quantification of cleaved caspase 3 positive […]
cells (b). Scale bar is 30 μm. Data are presented as mean ± SEM from 6 independent images. p values were […]
calculated using two-tailed, unpaired t tests. **, p<0.01; ***, p<0.001. (c,d) Immunofluorescent staining of […]
Ki67 (proliferating cells, red) and E-Cadherin (cancer cells, green) in vehicle, NHWD-870 or BMS-986158 […]
treated H526 tumors from (Figure 4a). Shown are representative images of Ki67 positive cells (c) and […]
quantification of Ki67 positive cells (d). Scale bar is 30 μm. […]
independent images. p values were calculated using two-tailed, unpaired t tests. *, p<0.05; ***, p<0.001. […]

[2] = tested on: MDA-MB231 triple negative breast cancer (TNBC) cells; experiment: AlamarBlue assay, MDA-MB231; format: cell-based, human; conditions: for Cellular activity in TNBCs (MDA-MB231), alamarBlue: Fig.1f, replicates
Method in brief: as §1

[3] = Body weight change of H526 SCLC tumor bearing mice; conditions: for Mouse body weight changes (%) from Day 0: 3mg/kg, QDx21D, 3 mg/kg
A375 human melanoma = A375 human melanoma xenograft tumor growth; format: in vivo, mouse
Description: PO, oral administration; QD, once daily; BID, twice daily. b–d Tumor growth curves for A2780 ovarian tumor (n = 5) (b), TMD8 large B cell lymphoma (n = 6) (c), and B16F10 melanoma (n = 5) (d) bearing mice treated with the indicated compounds once daily for 11-21 days. e, f Tumor growth curves for A375 melanoma (n = 6) (e), and patient-derived xenograft (PDX) of melanoma (n = 5) (f) bearing mice treated with the indicated compounds once daily (5 days on, 2 days off) for 21 days. For d–f, NHWD-870 used is NHWD-870-HCl synthesized using Suzuki coupling route. Data are presented as mean ± SEM in (a, b, d, f) and mean + SEM in (c, e). p values were calculated using two-tailed, unpaired t tests. *p < 0.05; **p < 0.01; ***p < 0.001. Source data are provided as a Source Data file.
4–6 weeks old female BALB/c nude mice were used for most experiments, with the exception of 6–8 weeks old female C57BL/6 mice were used for B16F10 experiments, and 6–8 weeks old male BALB/c nude mice and SD rats were used for pharmacokinetic experiments. All animals were purchased from Shanghai SIPPR-Bk Lab Animal Co., Ltd. All animals were housed under a regimen of 12 h light/12 h dark cycles and specific pathogen-free conditions. 5×10^6 NCI-H526, ES-2, MDA-MB231, A2780, A375, B16F10, and TMD-8 cells (0.1 ml) were injected subcutaneously into female nude mice. The melanoma patient-derived xenograft model was derived from a human melanoma sample (BRAF, NARS and NF1 wild type, and p53 mutant) removed from a patient in Xiangya Hospital. Surgically removed tumor fragments were implanted subcutaneously into female NSG mice. When the tumors grew to ~1000 mm^3, they were harvested and cryopreserved or immediately re-implanted for expansion or experiments. Mouse body weight and tumor sizes were measured every 3 days. Once the tumors grew to 150–200 mm^3, mice were treated with the compounds as described in the Figures. 1 × 10^6 A2780 cells (1 ml) were injected into the abdominal cavity of nude mice. Ascitic volume and tumor weight were measured by an electronic balance. All the procedures were evaluated and approved by the Institutional Animal Care and Use Committee of Central South University and Yale University. […]
We apologize for not clearly labeling the experiments using compounds synthesized using Suzuki coupling method. In the revised manuscript, we modified the text to clearly mark the animal models in Fig 3d-f were tested using NHWD-870 synthesized using Suzuki […]
compared the activity of NHWD-870 synthesized using Stille coupling route with the NHWD-870 synthesized from Suzuki coupling route (Reviewer Figure 1). […]
activity and possible toxicity were identical.
Reviewer Figure 1 NHWD-870 synthesized through Stille or Suzuki route has similar properties in vivo. Tumor bearing mice were treated with 2mg/kg of the indicated compounds, orally administrated once daily for 21 days. Shown are tumor growth curves (a) and body weight change (b) for A375 melanoma bearing mice. […]
986158 in terms of potency, but apart from with the A375 melanocyte cell line, the advance seems relatively moderate. With such similar compounds, the pharmacokinetic properties and ability to accumulate at the desired site is often more important. Figure S6d (prev. Fig. 3d) in the previous

Q: Which “fold increased potency versus BMS-986158” value ([1]; Fig 1e, f) does the source give for `Cc1nnn(C)c1-c1cnc2c3c4cnn(C)c4ccc3n([C@H](c3ccccc3)C3CCOCC3)c2c1` [NHWD-870] here?
A: 3 fold

Q: What about the “Cellular activity in SCLCs (H211), alamarBlue” value (shortened to “Cellular activity in SCLCs”) ([1]; concentration 0.0169701) of the same compound?
A: 15.41 and 2.82

Q: And the “Cellular activity in SCLCs” value ([1]; concentration 0.0398488)?
A: 10.96 and 4.35

Q: What about the “Cellular activity in SCLCs” value ([1]; concentration 0.137272) of the same compound?
A: 28.76 and 26.98

Q: What about the “Cellular activity in SCLCs” value ([1]; concentration 0.614394) of the same compound?
A: 86.83 and 87.53

Q: What about the “Cellular activity in SCLCs” value ([1]; concentration 1.09152) of the same compound?
A: 89.61 and 89.15

Q: What about the “Cellular activity in SCLCs” value ([1]; concentration 1.56864) of the same compound?
A: 89.26 and 88.73

Q: And the “Cellular activity in SCLCs” value ([1]; concentration 2.04576)?
A: 89.83 and 90.11

Q: And the “Cellular activity in SCLCs” value ([1]; concentration 3)?
A: 91.32 and 90.79

Q: What about the “Cellular activity in SCLCs” value ([1]; concentration column prints 2.52288) of the same compound?
A: 91.56 and 90.89

Q: And the IC50 ([1]; Homo sapiens, NCI-H211, 72 h, 72 h treatment, nM, read-out: IC50, cellular activity in NCI-H211 (alamarBlue))?
A: 2 nM

Q: And the “fold more potent than JQ1” value ([1]; NCI-H211 and MDA-MB231 cells)?
A: about 50 fold

Q: And the “% of KI67 (Ki67 positive cells)” value (H526 tumors)?
A: 10% and 8% and 13% and 11% and 6%

Q: And the “Cellular activity in TNBCs (MDA-MB231), alamarBlue” value (from here on “Cellular activity in TNBCs”) ([2]; concentration 0.15)?
A: 49.81 and 46.95

Q: And the “Cellular activity in TNBCs” value ([2]; concentration 0.6)?
A: 80.07 and 80.02

Q: And the “Cellular activity in TNBCs” value ([2]; concentration 1)?
A: 86.71 and 86.28

Q: What about the “Cellular activity in TNBCs” value ([2]; concentration 1.5) of the same compound?
A: 87.88 and 89.64

Q: What about the “Cellular activity in TNBCs” value ([2]; concentration 2) of the same compound?
A: 89.68 and 91.47

Q: And the “Cellular activity in TNBCs” value ([2]; concentration 2.5)?
A: 90.92 and 92.15

Q: What about the “Cellular activity in TNBCs” value ([2]; concentration 3) of the same compound?
A: 92.14 and 92.46

Q: What about the “Cellular activity in TNBCs” value ([2]; concentration -0.3) of the same compound?
A: 13.41 and 13.25

Q: And the “Cellular activity in TNBCs” value ([2]; concentration -0.9)?
A: 6.42 and 8.37

Q: What about the IC50 ([2]; Homo sapiens, MDA-MB-231, 72 h, 72 h treatment, nM, read-out: IC50, cellular activity in MDA-MB231 (alamarBlue)) of the same compound?
A: 1.6 nM

Q: What about the “Body weight change (%)” value ([3]; 3mg/kg,QD, day 0 and day 20 or the last available data point, individual mice) of the same compound?
A: -7.583% and -7.971% and -2.299% and 0.4517%

Q: What about the “Mouse body weight changes (%) from Day 0” value ([3]; Day 3, individual mice) of the same compound?
A: -0.08% and -2.62% and -1.34% and 1.57% and 0.13% and 1.52%

Q: What about the “Mouse body weight changes (%) from Day 0” value ([3]; Day 7, individual mice) of the same compound?
A: -7.05% and -0.52% and -4.19% and 1.94% and -3.62% and 0.82%

Q: And the “Mouse body weight changes (%) from Day 0” value ([3]; Day 10, individual mice)?
A: -10.82% and -3.48% and 3.84% and -1.13% and -5.35% and 3.04%

Q: What about the “Mouse body weight changes (%) from Day 0” value ([3]; Day 14, individual mice) of the same compound?
A: -1.11% and -16.35% and -6.33% and 0.59% and -10.57% and -3.67%

Q: And the “Mouse body weight changes (%) from Day 0” value ([3]; Day 17, individual mice)?
A: 3.90% and -4.84% and -5.58% and -1.24% and -10.06% and -0.93%

Q: And the “Mouse body weight changes (%) from Day 0” value ([3]; Day 20, individual mice)?
A: 0.45% and -8.20% and -7.58% and -7.97% and -11.87% and -2.30%

Q: And the body weight loss ([3]; H526 SCLC tumor bearing mice, 3mg/kg QD)?
A: about 6%

Q: And the “effect on tumor growth” value (A375 human melanoma; A375 human melanoma, once daily (5 days on, 2 days off) 21 days, NHWD-870-HCl)?
A: very strong tumor inhibitive effects

Q: What about the “activity and possible toxicity, Stille versus Suzuki coupling route” value (A375 human melanoma; A375 melanoma bearing mice, 2mg/kg orally once daily for 21 days) of the same compound?
A: identical
